Test results taken from US10144730B2, “Inhibitors of c-Jun-N-terminal kinase (JNK)” (Dana-Farber Cancer Institute, Inc., priority 2011, dated 2018).
Entries after “also recorded” stand apart in the source; their conditions may differ. Where two headings read alike, the source gives them in different places.

What was measured:
c-Jun phosphorylation [1] = assay: LanthaScreen TR-FRET cell assay for c-Jun phosphorylation in HeLa cells; type: cell-based; settings: for EC50: Hela cells, TNF-α stimulation, read-out: p-c-Jun EC50 (nM) Hela
Description: Phosphorylation was determined by measuring the time resolved FRET (TR-FRET) between a terbium labeled phospho-c-Jun specific antibody and GFP. The cells were plated in white tissue culture treated 384 well plates at a density of 10,000 cell per well in 32 μL assay medium (Opti-MEM®, supplemented with 0.5% charcoal/dextran-treated FBS, 100 U/ml penicillin and 100 μg/ml streptomycin, 0.1 mM nonessential amino acids, 1 mM sodium pyruvate, 25 mM Hepes, pH 7.3, and lacking phenol red). After overnight incubation, cells were pretreated for 90 minutes with compound (at indicated concentration) diluted in 4 μL assay buffer followed by 30 min of stimulation with 5 ng/ml of TNF-α in 4 μL assay buffer (final assay volume was 40 μl). The medium was then removed by aspiration, and the cells were lysed by adding 20 μl of lysis buffer (20 mM Tris-HCl, pH 7.6, 5 mM EDTA, 1% Nonidet P-40 substitute, 5 mM NaF, 150 mM NaCl, and 1:100 protease and phosphatase inhibitor mix, SIGMA P8340 and P2850, respectively). The lysis buffer included 2 nM of the terbium-labeled anti-c-Jun (pSer73) detection antibodies (Life Technologies). After allowing the assay to equilibrate for 60 minutes at room temperature, TR-FRET emission ratios were determined on a BMG Pherastar fluorescence plate reader (BMG Labtech, Cary, N.C.) using the following parameters: excitation at 340 nm; emission at 520 nm and 490 nm; 100 μs lag time; 200 μs integration time; and emission ratio=Em520/Em490. All data were analyzed and plotted using Graphpad Prism 4.
(§1) In parallel with biochemical evaluation, the ability of the compounds to inhibit JNK activity in cells was investigated using two independent assays formats. This is a critical issue because there are several reported JNK inhibitors with nanomolar biochemical potency that translate into micromolar cellular inhibitors. The most well characterized direct phosphorylation substrate of JNK is the transcription factor c-Jun.

JNK1 [2] = target: T1, JNK1 (Homo sapiens, UniProt P45983); settings: Table 2, *Literature values; cited from earlier work
JNK2 = JNK2 (Homo sapiens, UniProt P45984); settings: Table 2, *Literature values; cited from earlier work
c-Jun phosphorylation [3] = assay: High throughput microscopy of c-Jun phosphorylation in A375 cells; type: cell-based; settings: A375 cells, anisomycin stimulation, read-out: p-c-Jun EC50 (nM) A375
Description: (§2) Cells were fixed in 2% paraformaldehyde for 10 min at room temperature and washed with PBS-T (Phosphate Buffered Saline, 0.1% Tween 20). Cells were permeabilized in methanol for 10 min at room temperature, washed with PBS-T, and blocked in Odyssey Blocking Buffer (LI-COR Biosciences) for 1 hour at room temperature. Cells were incubated overnight at 4° C. with antibody specific for Erk1/2(pT202/pY204), Akt(pS473), c-Jun(pS73), pP38(T180/Y182) and pSTAT3(Y705) (Cell Signaling Technology), pRSK1(S380) and pMSK1(S376) (Epitomics), and NF-κB (Santa Cruz Biotechnology) diluted 1:400 in Odyssey Blocking Buffer. […] Cells were washed twice with PBS and imaged in an imageWoRx high-throughput microscope (Applied Precision). Data were plotted using DataPflex.
as §1

[4] = tested on: 260 kinases in A375 cells; assay: KiNativ cellular kinase selectivity profiling in A375 cells; type: cell-based; settings: 1 μM, 3 hours
Description: FIG. 9 illustrates the cellular kinase selectivity as assessed using the KiNativ™ technology.
The kinase selectivity of several key compounds was first evaluated using a chemical proteomic approach named KiNativ which detects 260 kinases in A375 cells (ActivX Biosciences). To probe the intracellular targets of the compounds, A375 cells were incubated with the inhibitors and then looked for protection of labeling by an ATP-biotin probe that non-specifically labels conserved lysines on kinases and other nucleotide-dependent enzymes. This provided an important advantage relative to the in vitro kinase selectivity profiling because in vitro the short incubation times and presence of reactive thiols in the buffers can potentially cause false negatives for acrylamide-modified kinase inhibitors. […] Since cysteine-directed covalent kinase inhibitors will sometimes cross-react with kinases that contain an equivalently placed cysteine, a sequence alignment was performed to identify all kinases which have a cysteine near JNK1 Cys116 (FIG. 10). […] The dramatic selectivity improvement that results from introduction of this flag-methyl group has been previously reported for imatinib (Zimmermann et al., 1996).

JNK3 = JNK3 (Homo sapiens, UniProt P53779); assay: Biochemical JNK3 kinase inhibition (Z'-lyte format)
JNK = assay: Binding kinetics (pulse-chase) assay, ATP-biotin labeling of JNK in A375 cells; type: cell-based; settings: 1 μM compound
Description: A375 cells were incubated with inhibitors for the indicated amount of time after which cell lysates were prepared and labeled with ATP-biotin. Biotinylated proteins were pulled down with streptavidin beads and material bound to the beads was eluted and separate by SDS-PAGE followed by Western blot analysis for JNK.
A375 cells (ATCC® CRL-1619™) were pre-treated with 1 μM compound for the indicated amounts of time. Remove the medium and wash 3 times with PBS. Resuspend the cell pellet with 1 mL Lysis Buffer (1% NP-40, 1% CHAPS, 25 mM Tris, 150 mM NaCl, Phosphatase Inhibitor Cocktail, Roche 04906845001, and Protease Inhibitor Cocktail Roche 11836170001). Rotate end-to-end for 30 min at 4° C. Lysates were cleared by centrifugation at 14000 rpm for 15 min in the Eppendorf. The cleared lysates gel filtered into Kinase Buffer (0.1% NP-40, 20 mM HEPES, 150 mM NaCl, Phosphatase Inhibitor Cocktail, and Protease Inhibitor Cocktail) using Bio-Rad 10DG colums. The total protein concentration of the gel-filtered lysate should be around 5-15 mg/ml. […]
In order to evaluate the kinetics with which JNK-IN-5 could covalently modify JNK in cells, a pulse-chase assay was developed . […] Streptavidin affinity chromatography is then used to isolate all biotinylated proteins and JNK protein is detected following SDS-PAGE and Western blotting (FIG. 8). […]

[5] = tested on: NF-kB nuclear translocation; assay: High-throughput microscopy, NF-kB nuclear translocation; type: cell-based; settings: Homo sapiens, A-375, A375 cells, TNF-α stimulation, read-out: Cellular EC50 NF-kB
Description: (§3) A375 cells were stimulated with anisomycin (FIGS. 14A and 14C to 14F), IGF-1 (FIG. 14B), IL-6 (FIG. 14G), and TNF-α (FIG. 14H) for sixty minutes. The output of multiple signaling pathways was measured using high throughput microscopy at multiple concentrations of four JNK inhibitors and a control compound specific to each pathway DMSO (FIG. 14A), MK2206 (allosteric Akt inhibitor, Haoyuan Chemexpress Co., Limited. Hirai, et al., 2010) (FIG. 14B), PD0325901 (allosteric Mek inhibitor, Haoyuan Chemexpress Co., Limited. Barrett, et al., 2008) (FIGS. 14C and 14D), SB239063 (ATP-competitive p38 inhibitor, Haoyuan Chemexpress Co., Limited. Underwood et al., 2000) (FIGS. 14E and 14F), KIN001-040 (ATP-competitive JAK1,2,3 inhibitor, Haoyuan Chemexpress Co., Limited. Thompson et al., 2002) (FIG. 14G), and KIN001-208 (IKK inhibitor VIII, Haoyuan Chemexpress Co., Limited., Murata, et al., 2004) (FIG. 14H).
(§4) Cells were plated at 7500 cells/well in 96-well microscopy plates (Corning) in recommended media for 24 hours, and then starved in media lacking serum for 16 hours. Cells were pre-treated for 180 minutes with 10-fold stock solutions of JNK inhibitors and for 10 min with control compounds MK2206, PD0325901, SB239063, KIN040, and KIN208 and treated with 10-fold stock solutions of IGF-1, IL-6, TNF-α (all PeproTech), or anisomycin for 60 minutes. Cells were fixed in 2% paraformaldehyde for 10 min at room temperature and washed with PBS-T (Phosphate Buffered Saline, 0.1% Tween 20). Cells were permeabilized in methanol for 10 min at room temperature, washed with PBS-T, and blocked in Odyssey Blocking Buffer (LI-COR Biosciences) for 1 hour at room temperature. Cells were incubated overnight at 4° C. with antibody specific for Erk1/2(pT202/pY204), Akt(pS473), c-Jun(pS73), pP38(T180/Y182) and pSTAT3(Y705) (Cell Signaling Technology), pRSK1(S380) and pMSK1(S376) (Epitomics), and NF-κB (Santa Cruz Biotechnology) diluted 1:400 in Odyssey Blocking Buffer. Cells were washed three times in PBS-T and incubated with rabbit-specific secondary antibody labeled with Alexa Fluor 647 (Invitrogen) diluted 1:2000 in Odyssey Blocking Buffer. Cells were washed once in PBS-T and once in PBS and incubated in 250 ng/ml Hoechst 33342 (Invitrogen) and 1:1000 Whole Cell Stain (blue; Thermo Scientific) solution. Cells were washed twice with PBS and imaged in an imageWoRx high-throughput microscope (Applied Precision). Data were plotted using DataPflex. […]

phosphorylation of Akt = assay: High-throughput microscopy, phosphorylation of Akt; type: cell-based; settings: Homo sapiens, A-375, A375 cells, IGF-1 stimulation, read-out: Cellular EC50 pAkt
Description: as §3, §4

phosphorylation of Erk = assay: High-throughput microscopy, phosphorylation of Erk; type: cell-based; settings: Homo sapiens, A-375, A375 cells, anisomycin stimulation, read-out: Cellular EC50 pErk
Description: as §3, §4

phosphorylation of Msk1 = assay: High-throughput microscopy, phosphorylation of Msk1; type: cell-based; settings: Homo sapiens, A-375, A375 cells, anisomycin stimulation, read-out: Cellular EC50 pMSK1
Description: A375 cells were stimulated with anisomycin (FIGS. 14A and 14C to 14F), IGF-1 (FIG. 14B), IL-6 (FIG. 14G), and TNF-α (FIG. 14H) for sixty minutes.
as §2

JNK1 [6] = target: T1, JNK1; assay: Biochemical JNK1 kinase inhibition (Z'-lyte format); settings: Table 2
[7] = target: additional kinase targets; assay: Follow-up enzymatic IC50 or Kd on potential additional kinase targets; settings: FIG. 12
From the text: Scores were obtained from the profiling against a […] using Kinome Scan™ technology as illustrated in FIG. 11.
To complement the KiNativ profiling, the in vitro kinase selectivity of several key compounds was comprehensively evaluated by two complementary approaches: a kinase-binding assays against a panel of 442 distinct kinases using the KINOMEscan methodology (DiscoverX) and a standard radioactivity-based enzymatic assays against a panel of 124 kinases (The National Centre for Protein Kinase Profiling in Dundee). […] It was attempted to confirm all these potent binding targets using either an enzymatic kinase assay or through the measurement of a dissociation constant to the kinase in question.

phosphorylation of RSK = assay: High-throughput microscopy, phosphorylation of RSK; type: cell-based; settings: Homo sapiens, A-375, A375 cells, anisomycin stimulation, read-out: Cellular EC50 pRSK
Description: as §3, §4

phosphorylation of STAT3 = assay: High-throughput microscopy, phosphorylation of STAT3; type: cell-based; settings: Homo sapiens, A-375, A375 cells, IL-6 stimulation, read-out: Cellular EC50 pSTAT3
Description: as §3, §4

[8] = tested on: panel of 442 distinct kinases; assay: KINOMEscan kinase-binding panel; settings: concentration of 1.0 μM
phosphorylation of p38 = assay: High-throughput microscopy, phosphorylation of p38; type: cell-based; settings: Homo sapiens, A-375, A375 cells, anisomycin stimulation, read-out: Cellular EC50 pP38
Description: as §3, §4

Sequence of JNK3 (P53779 whole entry): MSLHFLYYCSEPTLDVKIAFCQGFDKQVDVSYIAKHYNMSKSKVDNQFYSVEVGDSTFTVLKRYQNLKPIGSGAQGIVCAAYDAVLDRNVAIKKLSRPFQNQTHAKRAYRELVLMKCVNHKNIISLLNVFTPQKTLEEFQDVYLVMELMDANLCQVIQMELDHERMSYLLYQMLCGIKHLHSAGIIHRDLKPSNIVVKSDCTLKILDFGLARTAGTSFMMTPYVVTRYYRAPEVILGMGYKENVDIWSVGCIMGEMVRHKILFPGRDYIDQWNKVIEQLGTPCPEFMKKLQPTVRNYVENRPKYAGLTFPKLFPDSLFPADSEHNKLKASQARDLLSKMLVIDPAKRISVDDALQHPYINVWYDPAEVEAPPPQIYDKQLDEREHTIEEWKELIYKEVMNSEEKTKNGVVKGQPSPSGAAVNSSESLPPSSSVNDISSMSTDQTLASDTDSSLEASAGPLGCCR
T1 sequence (P45983 whole entry): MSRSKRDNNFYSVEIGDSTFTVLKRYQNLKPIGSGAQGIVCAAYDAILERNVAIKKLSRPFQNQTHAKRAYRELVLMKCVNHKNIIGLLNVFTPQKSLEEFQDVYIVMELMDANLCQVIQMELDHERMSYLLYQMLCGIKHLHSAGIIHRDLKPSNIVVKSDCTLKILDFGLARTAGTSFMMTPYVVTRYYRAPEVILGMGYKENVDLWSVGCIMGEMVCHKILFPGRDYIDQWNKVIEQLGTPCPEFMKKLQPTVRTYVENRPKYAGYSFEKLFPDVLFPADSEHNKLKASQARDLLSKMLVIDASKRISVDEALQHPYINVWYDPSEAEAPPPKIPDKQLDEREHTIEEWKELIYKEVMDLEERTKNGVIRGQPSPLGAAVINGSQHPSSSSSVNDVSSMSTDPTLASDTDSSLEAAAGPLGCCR
Sequence of JNK2 (P45984 whole entry): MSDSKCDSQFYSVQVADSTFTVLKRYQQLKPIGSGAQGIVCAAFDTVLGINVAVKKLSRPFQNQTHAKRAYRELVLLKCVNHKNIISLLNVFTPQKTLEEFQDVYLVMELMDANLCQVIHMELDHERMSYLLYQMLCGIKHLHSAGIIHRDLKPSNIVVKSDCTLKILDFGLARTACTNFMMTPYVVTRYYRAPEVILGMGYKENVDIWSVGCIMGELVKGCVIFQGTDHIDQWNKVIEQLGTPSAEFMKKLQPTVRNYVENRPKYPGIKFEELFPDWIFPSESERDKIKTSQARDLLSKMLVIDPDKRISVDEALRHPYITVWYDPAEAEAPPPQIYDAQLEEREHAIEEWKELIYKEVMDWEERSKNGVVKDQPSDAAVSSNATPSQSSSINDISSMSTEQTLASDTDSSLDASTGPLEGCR

For `N#CC(c1ccnc(NCCc2cccnc2)n1)c1nc2ccccc2s1` (centres unmarked) [AS601245, reference compound], the “IC50's for c-Jun phosphorylation in both cellular assay formats” value (c-Jun phosphorylation [1]; HeLa and A375 formats, tested in parallel) is listed as “micromolar range”, the EC50 (c-Jun phosphorylation [1]) is listed as 2020 nM and the IC50 (JNK1 [2]) is listed as 150 nM. For the same compound, the IC50 (JNK2) was 220 nM and the EC50 (c-Jun phosphorylation [3]) was 2400 nM.

For `CCC(=O)Nc1cccc(C(=O)Nc2ccc(Nc3nccc(-c4cccnc4)n3)cc2)c1` [JNK-IN-6], the EC50 (c-Jun phosphorylation [1]; Homo sapiens) was 6760 nM, the “cellular IC50 fold higher than covalent analog JNK-IN-5” value (c-Jun phosphorylation [1]; cellular c-Jun phosphorylation, relative to JNK-IN-5) was 50 fold and the “KiNativ result for JNK after live cell treatment” value [4] was “did not inhibit JNK activity”. For the same compound, the IC50 (JNK3; Table 2) was 148 nM, the “fold less potent biochemical IC50” value (JNK3; on JNK1, 2, and 3, relative to JNK-IN-5) was about 100 fold and the EC50 (c-Jun phosphorylation [3]; Homo sapiens, A-375) was 1900 nM. The “protection of JNK from labeling by ATP-biotin” value (JNK) was “incapable of protecting JNK from labeling by ATP-biotin; also recorded: no protection of JNK labeling”.

`CN(C)C/C=C/C(=O)Nc1cccc(C(=O)Nc2ccc(Nc3nccc(-c4cccnc4)n3)cc2)c1` [JNK-IN-7] gave an EC50 [5] of over 10 µM, an EC50 (phosphorylation of Akt) of over 10 µM and an EC50 (c-Jun phosphorylation [1]; Homo sapiens) of 130 nM. It also gave an EC50 (phosphorylation of Erk) of over 10 µM, an EC50 (phosphorylation of Msk1) of over 10 µM and an IC50 (JNK1 [6]) of 1.54 nM. The “Kd or IC50 against eight additional kinases” value [7] was at most 0.1 µM, the EC50 (phosphorylation of RSK) was over 10 µM and the EC50 (phosphorylation of STAT3) was over 10 µM. The “number of kinases with binding inhibition of 95% or more” value [8] was “approximately 14 kinases” and the EC50 (phosphorylation of p38) was over 10 µM.
